{
  "source": "patent US20250312469A1",
  "about": "(CANGET BIOTEKPHARMA, priority 2024, published 2025)",
  "key": {"[1]": {"system": "Agrin and its downstream targets", "experiment": "Western blots of Agrin and downstream targets in pancreatic cancer cell lines", "format": "cell-based, human", "description": "For frozen prostate cancer tissue specimens and their adjacent non-tumor tissues (if any) obtained from Roswell Park pathology network, 30-50 mg of each tissue in a 1.5 Eppendorf tube containing 500 μL of 2×SDS lysis buffer containing Tris pH 6.8+4% SDS+10% Glycerol were homogenized through ultrasound treatment for 10-15 second per time with 3-6 times until tumor tissue was lysed. After all tissues were processed, 1.5 mL tubes were centrifuged at 13,000 rom in a microcentrifuge for 1-2 min and then the supernatant in each tube was transferred into a new 1.5 mL tube for protein concentration measurement (refer to the section of “Studies with Human patient tumor specimens” for more information). Twenty to fifty μg total protein from each sample (cell lysis or tumor tissue lysis) were heated at 95° C. for 5 minutes after mixing with equal volumes of 2× SDS loading buffer. […] The membrane was then blocked in 5% skim milk in TBS-T buffer (20 mM Tris/HCl pH 7.5, 0.137 M NaCl, and 0.1% Tween 20) at room temperature for 2-3h. […] Proteins of interest were detected using Western Lightning ECL-Plus (Perkin Elmer, Waltham, MA) and visualized by various times (3-120 seconds) of exposure. Actin, tubulin and/or GAPDH were detected as the internal control to normalize total protein loading for each sample."}, "TA100": {"system": "TA100", "experiment": "Ames Bacterial Reverse Mutation Assay", "protocol": "(§1) The Ames Bacterial Reverse Mutation (AB™) used five bacterial tester strains (TA97a, TA98, TA100, TA1535, WP2-uvrA).\n(§2) Tester strains were added to flasks containing nutrient broth and incubated at 37+2° C. overnight. The flasks were removed from the overnight incubation and the final concentration was determined (the OD was measured and determined whether growth was suitable for testing). Top agar was melted, and 2.0 mL was dispensed into heated culture tubes. The S9 mix (metabolic activation) was prepared and stored on ice. […] Each culture tube was vortexed and immediately poured onto the labeled minimal glucose agar plates. All plates were inverted and placed into a 37±1° C. incubator for 48-72 hours. The plates were counted via an automated colony counter or by hand and the background lawn was microscopically evaluated for any signs of toxicity. Genotypic control plates were prepared for each tester strain and incubated for 24-72 hours at 37±1° C."}, "[2]": {"system": "LAPC9-AI vs. LAPC9-AD cells", "experiment": "LAPC9 organoid assay", "format": "cell-based"}, "TA98": {"system": "TA98", "experiment": "Ames Bacterial Reverse Mutation Assay", "protocol": "as §1, §2"}, "DDX5": {"biological_target": "DDX5 (Homo sapiens, UniProt P17844)", "sequence (P17844 whole entry)": "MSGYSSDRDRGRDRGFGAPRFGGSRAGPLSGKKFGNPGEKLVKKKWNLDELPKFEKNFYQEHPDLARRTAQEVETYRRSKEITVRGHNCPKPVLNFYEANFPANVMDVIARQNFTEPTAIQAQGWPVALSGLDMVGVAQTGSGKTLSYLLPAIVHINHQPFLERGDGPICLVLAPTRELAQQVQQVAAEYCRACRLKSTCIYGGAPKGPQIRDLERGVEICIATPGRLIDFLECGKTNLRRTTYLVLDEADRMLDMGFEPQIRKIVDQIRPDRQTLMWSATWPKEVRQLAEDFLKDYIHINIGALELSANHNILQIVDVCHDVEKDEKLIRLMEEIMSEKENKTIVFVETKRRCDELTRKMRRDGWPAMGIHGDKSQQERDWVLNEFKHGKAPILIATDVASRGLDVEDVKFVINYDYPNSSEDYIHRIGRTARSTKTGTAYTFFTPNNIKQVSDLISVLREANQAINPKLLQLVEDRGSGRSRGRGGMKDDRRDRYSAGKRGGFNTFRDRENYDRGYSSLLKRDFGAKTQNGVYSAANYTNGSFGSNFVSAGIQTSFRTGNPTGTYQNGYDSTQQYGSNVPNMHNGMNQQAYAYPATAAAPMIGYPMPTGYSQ", "experiment": "FL118 affinity column purification and mass spectrometry", "format": "binding", "settings": "SW620 protein lysates", "description": "The process includes many experimental steps as described below.\nAffinity purification column setup: (i) transfer the control resin slurry and the FL118-coupled resin slurry into two columns, respectively; (ii) allow resin to settle and then open the bottom cap to allow the solution to flow out to drain all the reaction solution; (iii) washing the column with 2 ml CB, and then with 2 ml ultrapure water/DMSO solution (75:25). […] Then additional 3×4 ml tris washing buffer (0.1 M Tris, pH 8.0).\nAfter extensive washing with washing buffer, the proteins binding on the column were eluted with 8M urea buffers.\nAfter digestion, the tryptic products were extracted twice and dried; the dried peptides were then reconstituted in 10 μL of 2% (v/v) formic acid for analysis with Liquid Chromatography Tandem Mass Spectrometry (LC-ESI-MS/MS). LC-ESI-MS/MS analysis of peptides was performed using a nano-ACQUITY UPLC system (Waters Corporation, Milford, MA) coupled through a nano-spray ionization source to a Quadrupole-Time-of-Flight (Q-ToF) Premier mass spectrometer (Micromass, Waters Corporation). […] The criteria used to identify the proteins included ion scores equal to or greater than the threshold significant ion score ([…]), and similarity between the observed protein molecular mass from gel electrophoresis and the calculated molecular mass provided in the database. […]"}},
  "note": "Values joined by “and” are separate entries in the source; they are usually repeats but may differ in a detail not shown here. Equal entries are not always repeated.",
  "data": [
    {"molecule": "CCC1(O)C(=O)OCc2c1cc1n(c2=O)Cc2cc3cc4c(cc3nc2-1)OCO4", "note": "(centres unmarked) [FL118]", "values": [
      {"measurement": "DDX5, Agrin, YAP1, Integrin expression and FAK phosphorylation", "setting": "[1]; Mia Paca-2, Panc-1, BxPC-3, 10, 100, 500 nM", "result": "inhibits the expression of DDX5, Agrin, YAP1 and Integrin as well as the FAK phosphorylation status"},
      {"measurement": "Agrin and YAP1 proteins", "setting": "[1]; Panc-1 cells", "result": "inhibits Agrin and YAP1 proteins"},
      {"measurement": "bacterial strain mutation", "setting": "TA100", "result": "does not induce"},
      {"measurement": "mean revertant colonies over negative control", "setting": "TA100; +/− S9", "result": "less than 2 fold"},
      {"measurement": "Background Lawn Code", "setting": "TA100; TA100, 0.010 μM +S9", "result": 1},
      {"measurement": "Colony Counts Average", "setting": "TA100; TA100, 0.010 μM +S9", "result": 92},
      {"measurement": "Colony Counts Replicate 1-3", "setting": "TA100; TA100, 0.010 μM +S9", "result": "101 and 96 and 79"},
      {"measurement": "Background Lawn Code", "setting": "TA100; TA100, 0.010 μM −S9", "result": 1},
      {"measurement": "Colony Counts Average", "setting": "TA100; TA100, 0.010 μM −S9", "result": 77},
      {"measurement": "Colony Counts Replicate 1-3", "setting": "TA100; TA100, 0.010 μM −S9", "result": "72 and 79 and 80"},
      {"measurement": "Background Lawn Code", "setting": "TA100; TA100, 0.10 μM +S9", "result": 1},
      {"measurement": "Colony Counts Average", "setting": "TA100; TA100, 0.10 μM +S9", "result": 89},
      {"measurement": "Colony Counts Replicate 1-3", "setting": "TA100; TA100, 0.10 μM +S9", "result": "96 and 74 and 98"},
      {"measurement": "Background Lawn Code", "setting": "TA100; TA100, 0.10 μM −S9", "result": 1},
      {"measurement": "Colony Counts Average", "setting": "TA100; TA100, 0.10 μM −S9", "result": 87},
      {"measurement": "Colony Counts Replicate 1-3", "setting": "TA100; TA100, 0.10 μM −S9", "result": "89 and 77 and 94"},
      {"measurement": "Background Lawn Code", "setting": "TA100; TA100, 1.0 μM +S9", "result": 1},
      {"measurement": "Colony Counts Average", "setting": "TA100; TA100, 1.0 μM +S9", "result": 99},
      {"measurement": "Colony Counts Replicate 1-3", "setting": "TA100; TA100, 1.0 μM +S9", "result": "105 and 106 and 87"},
      {"measurement": "Background Lawn Code", "setting": "TA100; TA100, 1.0 μM −S9", "result": 1},
      {"measurement": "Colony Counts Average", "setting": "TA100; TA100, 1.0 μM −S9", "result": 83},
      {"measurement": "Colony Counts Replicate 1-3", "setting": "TA100; TA100, 1.0 μM −S9", "result": "94 and 75 and 81"},
      {"measurement": "toxicity to AR−/lo LAPC9-AI vs AR+ LAPC9-AD cells", "setting": "[2]", "result": "selective toxicity"},
      {"measurement": "bacterial strain mutation", "setting": "TA98", "result": "does not induce"},
      {"measurement": "mean revertant colonies over negative control", "setting": "TA98; +/− S9", "result": "less than 2 fold"},
      {"measurement": "Background Lawn Code", "setting": "TA98; TA98, 0.010 μM +S9", "result": 1},
      {"measurement": "Colony Counts Average", "setting": "TA98; TA98, 0.010 μM +S9", "result": 38},
      {"measurement": "Colony Counts Replicate 1-3", "setting": "TA98; TA98, 0.010 μM +S9", "result": "32 and 37 and 45"},
      {"measurement": "Background Lawn Code", "setting": "TA98; TA98, 0.010 μM −S9", "result": 1},
      {"measurement": "Colony Counts Average", "setting": "TA98; TA98, 0.010 μM −S9", "result": 38},
      {"measurement": "Colony Counts Replicate 1-3", "setting": "TA98; TA98, 0.010 μM −S9", "result": "29 and 53 and 32"},
      {"measurement": "Background Lawn Code", "setting": "TA98; TA98, 0.10 μM +S9", "result": 1},
      {"measurement": "Colony Counts Average", "setting": "TA98; TA98, 0.10 μM +S9", "result": 44},
      {"measurement": "Colony Counts Replicate 1-3", "setting": "TA98; TA98, 0.10 μM +S9", "result": "45 and 41 and 46"},
      {"measurement": "Background Lawn Code", "setting": "TA98; TA98, 0.10 μM −S9", "result": 1},
      {"measurement": "Colony Counts Average", "setting": "TA98; TA98, 0.10 μM −S9", "result": 24},
      {"measurement": "Colony Counts Replicate 1-3", "setting": "TA98; TA98, 0.10 μM −S9", "result": "36 and 20 and 15"},
      {"measurement": "Background Lawn Code", "setting": "TA98; TA98, 1.0 μM +S9", "result": 1},
      {"measurement": "Colony Counts Average", "setting": "TA98; TA98, 1.0 μM +S9", "result": 44},
      {"measurement": "Colony Counts Replicate 1-3", "setting": "TA98; TA98, 1.0 μM +S9", "result": "35 and 45 and 52"},
      {"measurement": "Background Lawn Code", "setting": "TA98; TA98, 1.0 μM −S9", "result": 1},
      {"measurement": "Colony Counts Average", "setting": "TA98; TA98, 1.0 μM −S9", "result": 23},
      {"measurement": "Colony Counts Replicate 1-3", "setting": "TA98; TA98, 1.0 μM −S9", "result": "24 and 26 and 19"},
      {"measurement": "binding to DDX5 (affinity purification, MS)", "setting": "DDX5", "result": "physically binds"}
    ]}
  ]
}
